# Experimental data: publication PMC6318021 (Structure (London, England : 1993), 2018)
# Molecular target: Nurr1 (nuclear receptor related 1 protein) (Homo sapiens, UniProt P43354)
# Assay: tryptophan fluorescence quenching
# Assay type: binding
# Nurr1 (nuclear receptor related 1 protein), sequence (P43354 352-598): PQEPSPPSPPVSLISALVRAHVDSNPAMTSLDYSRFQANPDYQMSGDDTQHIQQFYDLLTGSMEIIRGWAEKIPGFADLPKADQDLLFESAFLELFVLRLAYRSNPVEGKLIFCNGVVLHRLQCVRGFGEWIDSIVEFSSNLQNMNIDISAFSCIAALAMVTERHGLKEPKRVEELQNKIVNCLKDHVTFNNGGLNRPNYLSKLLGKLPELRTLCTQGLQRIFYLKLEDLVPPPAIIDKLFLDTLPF
row,Compound,Kd [µM]
1,"CCCCCCCC/C=C\CCCCCCCC(=O)O [OA, oleic acid]",59 ± 15
2,"CCCCC/C=C\C/C=C\CCCCCCCC(=O)O [LA, linoleic acid]",101 ± 13
